Data as given in patent publication US9625458B2, “Biosensor” (priority 2002, dated 2017).

Experiments:
[1] = biological target: T1, E. coli arabinose binding protein C64A mutant (Escherichia coli, UniProt P02924, C87A); experiment: Arabinose affinity of unconjugated arabinose BP C64A
T1 construct: initiator methionine (N); Gly-Ser-Gly-(His)n or Gly-Ser-(His)n (n = 5, 6 or 10) (C); made in house; host or cells: E. coli BL21-DE3
From the text: (§1) Molecular Cloning. […] All clones and mutations were confirmed by nucleotide sequencing.
(§2) Cysteine point mutations were introduced by the PCR overlap method (Ho et al., Gene 77:51-59, 1989). Mutant proteins typically expressed as well as the wild type protein. […] In the case of Fe(III) BP, all mutations were constructed in the E57D background. […] This permitted straightforward determination of Fe(III) affinity by direct titration with Fe(III) citrate at nanomolar concentrations of Fe(III) BP.
(§3) The effect on dissociation constants is determined not only by the attachment site, but also by the nature of the attached fluorophore, as illustrated for arabinose BP. Dissociation constants for arabinose of the five cysteine-substitution mutants (all with the C64A mutation), measured by tryptophan fluorescence, are 5.0 μM (F23C), 3.2 μM (L253C), 3.4 μM (D257C), 7.6 μM (L298C), and 1.6 μM (K301C).

[2] = biological target: T2, E. coli arabinose binding protein variant C64A/D257C, fluorophore conjugate (Escherichia coli, UniProt P02924, C87A/D280C); experiment: Fluorimetric titration of fluorophore conjugates; conditions: allosteric site
T2 construct: initiator methionine (N); Gly-Ser-Gly-(His)n or Gly-Ser-(His)n (n = 5, 6 or 10) (C); made in house; host or cells: E. coli BL21-DE3
From the text: (§4) Molecular Cloning. […] Amplified products were cloned into one of the protein expression vectors pAED4 (Doering, “Functional and structural studies of a small f-actin binding domain” in Ph.D. thesis, Massachusetts Institute of Technology, 1992); pKK223-3 (Brosius & Holy, Proc. Natl. Acad. Sci. USA 81:6929-6933, 1984); or pET vectors (Studier et al., Meth. Enzymol. 185:60-89, 1990) (Novagen). N-terminal oligonucleotide primers were designed to clone only the processed periplasmic form, deleting the signal sequence. The C-terminal primer was designed to append the sequence Gly-Ser-Gly-(His)n or Gly-Ser-(His)n, where n=5, 6, or 10. Two tandem stop codons (TAATGA) follow the last His codon. […] Single amino acid substitutions were generated by overlapping PCR mutagenesis (Ho et al., Gene 77:51-59, 1989). All clones and mutations were confirmed by nucleotide sequencing. In the case of arabinose BP, the single cysteine in the wild type sequence was replaced by alanine to eliminate the possibility of reporter group conjugation to this thiol (Miller et al., J. Biol. Chem. 254:7521-7528, 1979). Additionally the sequence of Fe(III) BP was mutated by substitution of Glu57 with Asp to raise the Kd to a concentration range conveniently measured using Fe(III) citrate.
(§5) Fluorophore conjugation to cysteine-substituted bPBPs. Thiol-reactive fluorophores obtained from Molecular Probes (Eugene, Oreg.) were 5-iodoacetamidofluorescein (fluorescein); N-(1-pyrene) iodoacetamide (pyrene); N,N′-dimethyl-N-(iodoacetyl)-N′-(7-nitrobenz-2-oxa-1,3-diazol-4-yl)ethylenediamide (NBD); N-((2-(iodoacetoxy)ethyl)-N-methyl)amino-7-nitrobenz-2-oxa-1,3-diazole (NBDE); and 6-acryloyl-2-dimethylaminonaphthalene (acrylodan). The styryl and naphthyl dyes JPW4039, JPW4042, and JPW4045 (FIG. 3) were synthesized at the University of Connecticut. All fluorophore conjugation steps were typically carried out at room temperature. To protein at a concentration of 100 μM was added tris-(2-carboxyethyl)phosphine HCl to a five-fold molar excess to reduce intermolecular disulfide bonds. A thiol-reactive fluorophore (20 to 25 mM in acetonitrile or dimethyl sulfoxide) was added in small aliquots to a five-fold molar excess over protein. Conjugation proceeded in the dark at room temperature for 4 hours, or overnight at 4° C. Separation of protein from unreacted fluorophore was achieved by exhaustive dialysis or by size-exclusion chromatography. The efficiency of reporter group attachment was assessed by determination of unreacted thiol with Ellman's reagent (Ellman, Arch. Biochem. Biophys. 74:443-450, 1958) or by measuring the ratio of fluorophore to protein from absorbance spectra of the purified conjugate.
(§6) Fluorimetry. All measurements were conducted with an SLM Aminco-Bowman series 2 fluorimeter, with sample stirring at 25° C. Fluorescence emission spectra were acquired with excitation and emission slit widths of 4 and 8 nm, respectively. Photomultiplier tube potential was maintained between 400 and 800 volts. Protein concentrations were in the range of 50 to 1000 nM. Fluorophore-specific excitation was at the following approximate wavelengths: tryptophan, 290 nm; acrylodan, 390 nm; fluorescein, 485 nm; pyrene, 340 nm; NBD and NBDE, 490 nm; JPW4039, 485 nm; JPW4042, 470 nm; JPW4045, 470 nm.
(§7) Corrections were made for dilution of the protein and for background signal from buffer. Binding curves were fit to binding isotherms using equation 3 or 4, as appropriate.
(§8) Analyte affinity measurements. […] The emission wavelength monitored was that of maximum difference in intensity between the ligand-free and bound states. For each conjugate, fluorescence intensiometric observations were fit to a hyperbolic binding isotherm for a two-state model (Marvin et al., Proc. Natl. Acad. Sci. USA 94:4366-4371, 1997): […]

[3] = biological target: T3, E. coli arabinose binding protein variant C64A/F23C, fluorophore conjugate (Escherichia coli, UniProt P02924, C87A/F46C); experiment: Fluorimetric titration of fluorophore conjugates; conditions: allosteric site
T3 construct: initiator methionine (N); Gly-Ser-Gly-(His)n or Gly-Ser-(His)n (n = 5, 6 or 10) (C); made in house; host or cells: E. coli BL21-DE3
From the text: as §4, §5, §6, §7, §8

[4] = biological target: T4, E. coli arabinose binding protein variant C64A/L298C, fluorophore conjugate (Escherichia coli, UniProt P02924, C87A/L321C); experiment: Fluorimetric titration of fluorophore conjugates; conditions: allosteric site
T4 construct: initiator methionine (N); Gly-Ser-Gly-(His)n or Gly-Ser-(His)n (n = 5, 6 or 10) (C); made in house; host or cells: E. coli BL21-DE3
From the text: as §4, §5, §6, §7, §8

[5] = biological target: T5, E. coli arabinose binding protein variant C64A/K301C, fluorophore conjugate (Escherichia coli, UniProt P02924, C87A/K324C); experiment: Fluorimetric titration of fluorophore conjugates
T5 construct: initiator methionine (N); Gly-Ser-Gly-(His)n or Gly-Ser-(His)n (n = 5, 6 or 10) (C); made in house; host or cells: E. coli BL21-DE3
From the text: as §4, §5, §6, §7, §8

[6] = biological target: T6, E. coli arabinose binding protein variant C64A/L253C, fluorophore conjugate (Escherichia coli, UniProt P02924, C87A/L276C); experiment: Fluorimetric titration of fluorophore conjugates
T6 construct: initiator methionine (N); Gly-Ser-Gly-(His)n or Gly-Ser-(His)n (n = 5, 6 or 10) (C); made in house; host or cells: E. coli BL21-DE3
From the text: as §4, §5, §6, §7, §8

[7] = biological target: T7, E. coli arabinose binding protein variant C64A/F23C (Escherichia coli, UniProt P02924, C87A/F46C); experiment: Arabinose affinity by tryptophan fluorescence
T7 construct: initiator methionine (N); Gly-Ser-Gly-(His)n or Gly-Ser-(His)n (n = 5, 6 or 10) (C); made in house; host or cells: E. coli BL21-DE3
From the text: as §1, §2, §3

[8] = biological target: T8, E. coli arabinose binding protein variant C64A/K301C (Escherichia coli, UniProt P02924, C87A/K324C); experiment: Arabinose affinity by tryptophan fluorescence
T8 construct: initiator methionine (N); Gly-Ser-Gly-(His)n or Gly-Ser-(His)n (n = 5, 6 or 10) (C); made in house; host or cells: E. coli BL21-DE3
From the text: as §1, §2, §3

[9] = biological target: T9, E. coli arabinose binding protein variant C64A/D257C (Escherichia coli, UniProt P02924, C87A/D280C); experiment: Arabinose affinity by tryptophan fluorescence
T9 construct: initiator methionine (N); Gly-Ser-Gly-(His)n or Gly-Ser-(His)n (n = 5, 6 or 10) (C); made in house; host or cells: E. coli BL21-DE3
From the text: as §1, §2, §3

[10] = biological target: T10, E. coli arabinose binding protein variant C64A/L298C (Escherichia coli, UniProt P02924, C87A/L321C); experiment: Arabinose affinity by tryptophan fluorescence
T10 construct: initiator methionine (N); Gly-Ser-Gly-(His)n or Gly-Ser-(His)n (n = 5, 6 or 10) (C); made in house; host or cells: E. coli BL21-DE3
From the text: as §1, §2, §3

[11] = biological target: T11, E. coli arabinose binding protein variant C64A/L253C (Escherichia coli, UniProt P02924, C87A/L276C); experiment: Arabinose affinity by tryptophan fluorescence
T11 construct: initiator methionine (N); Gly-Ser-Gly-(His)n or Gly-Ser-(His)n (n = 5, 6 or 10) (C); made in house; host or cells: E. coli BL21-DE3
From the text: as §1, §2, §3

[12] = Acrylodan conjugate, allosteric site
[13] = JPW4039 conjugate, allosteric site

T5 sequence (P02924 24-329 C87A/K324C): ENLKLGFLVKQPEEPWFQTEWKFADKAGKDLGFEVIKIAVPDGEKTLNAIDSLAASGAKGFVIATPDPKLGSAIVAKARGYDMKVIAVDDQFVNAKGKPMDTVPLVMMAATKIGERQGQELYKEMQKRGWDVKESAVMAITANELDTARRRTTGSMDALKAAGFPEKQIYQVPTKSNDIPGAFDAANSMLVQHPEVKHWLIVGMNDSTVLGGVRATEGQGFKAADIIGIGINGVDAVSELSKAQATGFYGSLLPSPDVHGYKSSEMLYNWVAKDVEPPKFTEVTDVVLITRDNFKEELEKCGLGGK
T6 sequence (P02924 24-329 C87A/L276C): as the sequence (P02924 24-329 C87A/K324C) above, with L253C, C301K counted along it
T4 sequence (P02924 24-329 C87A/L321C): as the sequence (P02924 24-329 C87A/K324C) above, with L298C, C301K counted along it
T3 sequence (P02924 24-329 F46C/C87A): as the sequence (P02924 24-329 C87A/K324C) above, with F23C, C301K counted along it
T2 sequence (P02924 24-329 C87A/D280C): as the sequence (P02924 24-329 C87A/K324C) above, with D257C, C301K counted along it
T8 sequence (P02924 24-329 C87A/K324C): as the sequence (P02924 24-329 C87A/K324C) above
T11 sequence (P02924 24-329 C87A/L276C): as the sequence (P02924 24-329 C87A/K324C) above, with L253C, C301K counted along it
T10 sequence (P02924 24-329 C87A/L321C): as the sequence (P02924 24-329 C87A/K324C) above, with L298C, C301K counted along it
T7 sequence (P02924 24-329 F46C/C87A): as the sequence (P02924 24-329 C87A/K324C) above, with F23C, C301K counted along it
T9 sequence (P02924 24-329 C87A/D280C): as the sequence (P02924 24-329 C87A/K324C) above, with D257C, C301K counted along it
T1 sequence (P02924 24-329 C87A): as the sequence (P02924 24-329 C87A/K324C) above, with C301K counted along it

Compound: OC1OC[C@H](O)[C@H](O)[C@H]1O (some centres unmarked) [arabinose]
- Kd [1]: ~2.2 µM
- Kd ([2]; Acrylodan conjugate): 56 µM
- Kd ([2]; Fluorescein conjugate): 4 µM
- Kd ([2]; JPW4039 conjugate): 90 µM
- Kd ([2]; NBD conjugate): 32 µM
- Kd ([3]; Acrylodan conjugate): 3.9 µM
- Kd ([3]; Fluorescein conjugate): 3.2 µM
- Kd ([3]; JPW4039 conjugate): 38 µM
- Kd ([3]; NBD conjugate): 5 µM
- Kd ([4]; Acrylodan conjugate): 44 µM
- Kd ([4]; JPW4039 conjugate): 70 µM
- Kd ([4]; NBD conjugate): 56 µM
- Kd [5, 12]: 0.46 µM
- Kd ([5]; Fluorescein conjugate, allosteric site): 24 µM
- Kd [5, 13]: 77 µM
- Kd ([5]; K301C-NBD conjugate): ~31 µM
- Kd ([5]; NBD conjugate, allosteric site): 31 µM
- Kd [6, 12]: 0.69 µM
- Kd ([6]; Fluoresecin conjugate, allosteric site): 48 µM
- Kd [6, 13]: 165 µM
- Kd ([6]; L253C-NBD conjugate): 775 µM
- Kd ([6]; L253C-acrylodan conjugate): 0.7 µM
- Kd ([6]; L253C-fluorescein conjugate): ~48 µM
- Kd ([6]; NBD conjugate, allosteric site): 775 µM
- Kd [7]: 5 µM
- Kd [8]: 1.6 µM
- Kd [9]: 3.4 µM
- Kd [10]: 7.6 µM
- Kd [11]: 3.2 µM
